Among the data in PubChem BioAssay (NCI) are TGI values, retold here.

Assay in all cases: inhibition of tumour cell growth, NCI panel, 48 h
For experiment [1], the system named is HS 578T breast.
Experiment [2] has as its system BT-549 breast.
Experiment [3] relates to PC-3 prostate.
Experiment [4] concerns ACHN renal.
The test system of experiment [5] is SK-MEL-28 melanoma.
The test system of experiment [6] is HCC-2998 colon.
Experiment [7] has as its system 786-0 renal.
Experiment [8] deals with A498 renal.
The subject of experiment [9] is CAKI-1 renal.
The test system of experiment [10] is RPMI-8226 leukemia.
Experiment [11] deals with OVCAR-4 ovarian.
In experiment [12] the test system is SK-MEL-2 melanoma.
Experiment [13] has as its system MOLT-4 leukemia.
In experiment [14] the test system is LOX IMVI melanoma.
Experiment [15] has as its system COLO 205 colon.
Experiment [16] relates to NCI-H226 lung.
Experiment [17] deals with SNB-19 CNS.
The test system of experiment [18] is SNB-75 CNS.
Experiment [19] deals with HCT-15 colon.
Experiment [20] concerns KM12 colon.

Each structure is given as a SMILES string.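 Values below derive from 48-hour exposures of cells grown in 96-well plates, with endpoints linearly interpolated between the two concentrations bracketing the appropriate inhibition level. TGI is the concentration that stops growth completely.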

Turning to `CCOC1OC(=O)c2cc3ccc4c(c3c(-c3ccc5c(c3)OCO5)c21)OCO4` (stereo not given), the TGI in experiment [1] was over 39.6 µM; in [2], 97.2 µM; in experiment [3], over 100 µM; in [4] it was over 100 µM; in experiment [5] it was over 100 µM; in [6], 20.3 µM. The TGI in experiment [7], in [8], in [9], in [10], in experiment [11] and in [12] was over 100 µM in each case. The TGI is over 100 µM in [13]; over 100 µM in experiment [14]; 5.16 µM in experiment [15]; over 74 µM in experiment [16]; over 100 µM in [17]; 15.5 µM in experiment [18]. In addition, the TGI in experiment [19] and in experiment [20] was over 100 µM each time.
In the case of `Clc1ccc(C2C3COc4ccccc4C3=NN2c2ccccc2)cc1` (stereo not given), the TGI in [1], in [2], in experiment [3], in [4], in [5] and in experiment [6] was over 100 µM each time. Further, the TGI in experiment [7] is over 96.4 µM; in experiment [8], over 100 µM; in experiment [9], over 100 µM; in [10], 7.32 µM; in experiment [11] it was over 100 µM; in experiment [12], over 100 µM. Also, the TGI was 47 µM in [13]; over 48.7 µM in experiment [14]; over 100 µM in [15]; over 100 µM in [16]; over 93.5 µM in [17]; 98.9 µM in experiment [18]. Moreover, the TGI in experiment [19] and in [20] was over 100 µM in each case.
With `Cc1ccnc2[nH]c3ccccc3c(=O)c12`, the TGI in [1] was 48 µM; in experiment [2], 86.7 µM; in experiment [3], 81.6 µM; in experiment [4], over 100 µM; in experiment [5], 47.5 µM; in experiment [6], 65 µM. The TGI in [7] was over 100 µM; in experiment [8] it was over 100 µM; in [9] it was 38.5 µM; in [10] it was 95.8 µM; in experiment [11] it was over 100 µM; in experiment [12] it was 68.7 µM. For the same compound, the TGI in experiment [13] was 55.1 µM; in [14] it was over 100 µM; in experiment [15], 59.1 µM; in experiment [16], over 100 µM; in [17] it was over 100 µM; in [18], 32.1 µM. The TGI in experiment [19] was over 100 µM; in experiment [20], 50.3 µM.
Consider `CC1OC(OC2C(O)COC(OC3C(C)OC(OC4C(OC(=O)[C@]56CCC(C)(C)C[C@@H]5C5=CCC7[C@@]8(C)C[C@H](O)[C@H](OC9OC(CO)C(O)C(O)C9O)[C@@](C)(CO)[C@@H]8CC[C@@]7(C)[C@]5(C)CC6)OCC(O)C4O)C(O)C3OC3OCC(O)(CO)C3O)C2O)C(O)C(O)C1O` (stereo not given in full), for which the TGI in experiment [1] came to 35.8 µM; in experiment [2], 38 µM; in experiment [3], 28.6 µM; in [4], 34 µM; in experiment [5], 13.6 µM; in [6], 14.7 µM. Moreover, the TGI was 27.8 µM in experiment [7]; 13.6 µM in experiment [8]; 13.8 µM in [9]; over 100 µM in experiment [10]; 37.2 µM in experiment [11]; 30.8 µM in [12]. Also, the TGI is 46.5 µM in experiment [13]; 43.2 µM in experiment [14]; 6.37 µM in experiment [15]; 43 µM in [16]; 29 µM in experiment [17]; 39.6 µM in [18]. Also, the TGI in [19] stood at 38.7 µM; in experiment [20] it was 52.4 µM.
Take `COc1cc(NS(C)(=O)=O)ccc1Nc1c2ccccc2nc2c1[nH]c1ccc(NC3OC(CO)C(O)C(O)C3O)cc12` (stereo not given): the TGI in experiment [1] came to 4.29 µM; in experiment [2], 5.69 µM; in experiment [3], 3.6 µM; in experiment [4] it was 0.137 µM; in [5], 1.96 µM; in [6] it was 0.809 µM. The TGI in experiment [7] is 0.339 µM; in [8], 0.881 µM; in [9], 0.091 µM; in experiment [10] it was 3.85 µM; in [11], 4.66 µM; in experiment [12] it was 1.36 µM. For the same compound, the TGI in experiment [13] worked out at 3.65 µM; in [14] it was 1.18 µM; in experiment [15], 2.76 µM; in experiment [16] it was 0.201 µM; in [17] it was 1.46 µM; in experiment [18] it was 0.388 µM. For the same compound, the figures for the TGI in experiment [19] and in experiment [20] were 2.14 µM and 1.21 µM, respectively.
For the compound `CSc1nc(Nc2cccc(C(F)(F)F)c2)c2c(N)nn(C)c2n1`, the TGI in experiment [1], in experiment [2], in [3], in experiment [4], in experiment [5] and in [6] was over 100 µM in each case. Moreover, the TGI in experiment [7], in experiment [8], in experiment [9], in experiment [10], in experiment [11] and in [12] was over 100 µM each time. The TGI in experiment [13], in experiment [14], in [15], in [16], in [17] and in experiment [18] was over 100 µM throughout. For the same compound, the TGI in experiment [19] and in experiment [20] was over 100 µM in each case.
